These results are taken from publication PMC4020785 (PLoS ONE, 2014).

Series [1] deals with HIV-1 clone NL4.3 (subtype B). The series is described as follows: HIV-1 NL4.3 (subtype B) infection of MT-4 cells, Cell Titer Blue readout. It counts as cell-based. The note with it: for EC50: Human immunodeficiency virus 1, MT4. On the procedure: (§1) Human PMBCs were incubated with 100 U recombinant IL-2 (Sigma-Aldrich) and 5 µg/mL phytohemagglutinin-P (PHA-P) (Difco) for 5 days at 37°C. MT-4 cells (1×10^6) or treated PBMCs (1.2×10^8) were infected with HIV-1 clone NL-4.3 or ZM247Fv-1 (MOI of 0.001) by spinoculation (1200 g at room temperature for 2 h). Uninfected cells were used as negative control and were also subjected to the spinoculation process. After spinoculation, supernatants were discarded and cells were resuspended in 10 mL of R10. Cells from each condition were then added to wells (96-well plate) containing serial dilutions of each ISD. For MT-4 cells, each dilution was done in sextuplicates and, for PBMCs, in triplicates. Cells were also incubated with different concentrations of ZDV as positive control. After 5 days in culture, Cell Titer Blue was added to each well and cells were incubated for additional 24 h. The median effective concentration for each drug is defined as EC50. In parallel with the infectivity assay, the same cell types were treated with different concentrations of drugs to determine their cytotoxicity, following the protocol described above. Drug concentration that results in a 50% decrease in viable cells is defined as the CC50 for each compound. EC50 was calculated according to Spearman-Karber and therapeutic index was defined by the ratio between CC50 and EC50 [55].
(§2) All statistical analyses were performed using program GraphPism version 6.0. Titrations for TCID50 infectivity were calculated by the Spearman-Karber method. Dose response curves to ISDs with HIV-1 subtype B and C were done using non-linear regression and were fit to the Hill equation.
(In general: Alamar Blue is a resazurin reagent that responds to reducing activity.)

Series [2] deals with HIV-1 clone ZM247Fv-1 (subtype C). As to the kind of experiment: HIV-1 ZM247Fv-1 (subtype C) infection of MT-4 cells, Cell Titer Blue readout. Format: cell-based. The note with it: for EC50: Human immunodeficiency virus 1, MT4; for TI (CC50/EC50): MT-4 cells, Subtype C (R5). On the procedure: as §1, §2
Series [3] has as its system HIV-1 clone NL4.3 (subtype B). As to the kind of experiment: HIV-1 NL4.3 (subtype B) infection of human PBMCs, Cell Titer Blue readout. It counts as cell-based. On the procedure:
as §1, §2

Series [4] has as its system HIV-1 clone ZM247Fv-1 (subtype C). As to the kind of experiment: HIV-1 ZM247Fv-1 (subtype C) infection of human PBMCs, Cell Titer Blue readout. It counts as cell-based. To be noted: for TI (CC50/EC50): Human PBMC, Subtype C (R5); for EC50: Human immunodeficiency virus 1, PBMC. On the procedure: as §1, §2
Series [5] is described as follows: Cytotoxicity (CC50) in MT-4 cells. Format: cell-based. The note with it: human, Subtype B (X4). On the procedure:
(§3) Cytotoxicity of ISDs was evaluated in J-Lat (clones 9.2 and 10.6) and PHA-activated human PBMCs. Cells were added to wells in a 96-well plate in the presence of various concentrations of ISDs, PMA or prostratin in sextuplicates for 24 and 72 h. Cell viability was determined using the CellTiter-blue fluorescence Cell Viability Assay (Promega) following the manufacturer's instruction.
as §1

Series [6] can be described thus: Cytotoxicity (CC50) in human PBMCs. The note with it: human PBMCs activated with IL-2 and PHA-P; Human PBMC, Subtype C (R5). Format: cell-based. On the procedure: as §3, §1
Another series relates to HIV LTR in J-Lat clones. As to the kind of experiment: LTR-driven GFP expression in J-Lat clones. It counts as cell-based, HIV-1. The note with it: J-Lat clones 9.2 and 10.6, 48 h, all concentrations tested. On the procedure: J-Lat cells are Jurkat cells stably transfected by an HIV genome whose nef sequence was replaced by the GFP gene. Also, a frameshift mutation was introduced to the env gene to prevent virus spread. […] To test the ISDs, a million cells of each clone were treated with different concentrations of each compound (ING-A, ING-B, ING-C, prostratin and PMA) at 37°C. TNF-α (10 ng/mL) was used as a positive control. After 48 h, cells were collected, washed with saline solution (PBS) and GFP expression was evaluated in a FACScalibur cytometer (BD Biosciences). Data were analyzed with Cell Quest Pro software (BD Biosciences).

Series [7] has as its system PKC. The series is described as follows: PKC inhibitors on diterpene-induced GFP expression in J-Lat clones 9.2 and 10.6. Format: cell-based. On the procedure: (§4) For analysis of cell surface marker expression, MT-4 cells and bead-selected CD4+ T cells (described above) were incubated with 1 µM of each compound (ING-A, ING-B, ING-C, prostratin, PMA, and bryostatin-1) at 37°C for 48 h. After incubation, cells were washed with PBS and incubated for 20 min at room temperature with antibodies against CD3-Brilliant Violet 510 (clone OKT3 – Biolegend), CD4-Qdot 655 (clone 53.5 - Life Technologies), CXCR4-PE (clone 1265 - BD Biosciences), CCR5-PerCP-Cy5.5 (clone 3A9 - BD Biosciences), CD69-Pacific Blue (clone FN50 – BD Biosciences), CD38-FITC (clone AT-1 – Stem Cell Technologies), CD25-APC (clone 2A3 – BD Biosciences), HLA-DR-Qdot 605 (clone TÜ36 – Life Technologies) and a marker for annexin V-FITC (Life Technologies). Cells (both MT-4 cells and CD4+ T cells) were initially incubated for 2 h with different PKC inhibitors (GÖ6983, GÖ6976 or RO-31-8220). Then, ING-B, prostratin or PMA at 1 µM or TNF-α at 10 ng/mL were added to each condition and incubation was carried out for 24 h at 37°C. Similar protocol was used for the analysis of PKC inhibitors in J-Lat clones 9.2 and 10.6. GFP expression, surface marker expression and activation marker were evaluated on a LSR Fortessa cytometer (BD Biosciences). Data analysis was performed using FlowJo software (Tree Star).

The subject of series [8] is PKC. The series is described as follows: PKC inhibitors on ING-B-driven receptor downregulation in MT-4 cells. Format: cell-based. To be noted: 0.1 µM inhibitor, then 1 µM ING-B 24 h. On the procedure: as §4
The subject of series [9] is PKC. As to the kind of experiment: PKC inhibitors on ING-B-driven receptor downregulation in CD4+ T lymphocytes. Format: cell-based, human. The note with it: 0.1 µM inhibitor in the presence of 1 µM ING-B. On the procedure: as §4
For series [10], the system named is CD4, CXCR4, CCR5 on MT-4 cells. The series is described as follows: Surface CD4, CXCR4, CCR5 expression in MT-4 cells (cytometry). Format: cell-based. The note with it: 1 µM. On the procedure:
as §4

Series [11] deals with CD4, CXCR4, CCR5 on CD4+ T lymphocytes. As to the kind of experiment: Surface CD4, CXCR4, CCR5 expression in CD4+ T lymphocytes (cytometry). Format: cell-based, human. The note with it: CD4+ lymphocytes, 1 µM. On the procedure:
as §4

In the next series the test system is CD4+ T lymphocytes. The series is described as follows: Activation markers CD25, CD38, HLA-DR, CD69 on CD4+ T lymphocytes (cytometry). Format: cell-based, human. The note with it: 1 µM. On the procedure: For analysis of cell surface marker expression, MT-4 cells and bead-selected CD4+ T cells (described above) were incubated with 1 µM of each compound (ING-A, ING-B, ING-C, prostratin, PMA, and bryostatin-1) at 37°C for 48 h. […] Cells (both MT-4 cells and CD4+ T cells) were initially incubated for 2 h with different PKC inhibitors (GÖ6983, GÖ6976 or RO-31-8220). Then, ING-B, prostratin or PMA at 1 µM or TNF-α at 10 ng/mL were added to each condition and incubation was carried out for 24 h at 37°C. […] GFP expression, surface marker expression and activation marker were evaluated on a LSR Fortessa cytometer (BD Biosciences). Data analysis was performed using FlowJo software (Tree Star).

The subject of the next series is HIV-1 subtype B and C. The series is described as follows: Inhibition of HIV-1 subtype B and C replication, summary over MT-4 cells and human PBMCs. Format: cell-based. To be noted: Human immunodeficiency virus 1, PBMC, MT-4 and human PBMCs. On the procedure:
as §1

[12] abbreviates: Human immunodeficiency virus 1, PBMC.

In the case of `CCCCCCCCCCCC(=O)O[C@H]1C(C)=C[C@]23C(=O)[C@@H](C=C(CO)[C@@H](O)[C@]12O)[C@H]1[C@@H](C[C@H]3C)C1(C)C` [ING-C, ingenol-3-dodecanoate], the EC50 in series [1] worked out at 41 nM; in [2], 36 nM; in series [3] (setting [12]) it was 52 nM; in [4] it was 92 nM. Also, the “TI (CC50/EC50)” value in [1] (MT-4 cells, Subtype B (X4)) is reported as 658.5; in series [2] it was 750; in [3] (Human PBMC, Subtype B (X4)), 730.7; in series [4], 413. The values for the CC50 at 5 days in series [5] and in series [6] were 27000 nM and 38000 nM, respectively. For the same compound, the “levels of GFP expression, rank order” value in the series on HIV LTR in J-Lat clones is “PMA = ING-B > ING-A = ING-C > prostratin”.

As for `Cn1cc(C2=C(c3cn(CCCSC(=N)N)c4ccccc34)C(=O)NC2=O)c2ccccc21` [RO-31-8220], in the series on PKC [7] (discussion statement), the “reduction of ING-B-driven GFP expression” value is on record as 75%. In the series with PKC [7] (pre-incubation with 0.1 µM inhibitor, response to ISDs, prostratin and PMA), the “GFP expression reduced to” value is 75%. Besides, the “effect on ING-B-driven receptor downregulation” value with PKC [8] is “not able to downregulate the expression of CD4 and CXCR4”. For the same compound, in the series on PKC [9], the “overexpression of CD4 and CCR5 compared to untreated control” value is “up to 2.5 fold”.

Take `CCCCCCCCCCCCCC(=O)O[C@@H]1[C@@H](C)[C@@]2(O)[C@@H](C=C(CO)C[C@]3(O)C(=O)C(C)=C[C@@H]23)[C@@H]2C(C)(C)[C@]12OC(C)=O` [PMA, phorbol 13-myristate acetate]: the “levels of GFP expression, rank order” value in the series with HIV LTR in J-Lat clones is recorded as “PMA = ING-B > ING-A = ING-C > prostratin”. In addition, in series [10], the “surface CD4 and CXCR4 expression, of that in the control condition” value was no less than 50%. Also, in series [11], the “levels of CD4 expression” value was “severely diminished”. In addition, in the series with CD4+ T lymphocytes, the CD25 surface expression result is given as “upregulated”; the “CD69 and CD38 surface expression” value is recorded as “more intensely”; the HLA-DR surface expression result is “upregulated by ISDs and PMA”.

As for `CC1=C[C@]23C(=O)[C@@H](C=C(CO)[C@@H](O)[C@]2(O)[C@H]1OC(=O)/C=C/c1ccccc1)[C@H]1[C@@H](C[C@H]3C)C1(C)C` [ING-A, ingenol-3-trans-cinnamate], the EC50 in series [1] turned out to be 37 nM; in [2], 38 nM; in series [3] (setting [12]), 53 nM; in series [4], 49 nM. Besides, the “TI (CC50/EC50)” value in series [1] (MT-4 cells, Subtype B (X4)) is listed as 675.6; in series [2], 657.9; in series [3] (Human PBMC, Subtype B (X4)), 641.5; in [4] it was 693.9. Besides, the CC50 at 5 days in series [5] amounted to 25000 nM; in series [6], 34000 nM. For the same compound, in the series with HIV LTR in J-Lat clones, the “levels of GFP expression, rank order” value was “PMA = ING-B > ING-A = ING-C > prostratin”.

Take `Cc1cn([C@H]2C[C@H](N=[N+]=[N-])[C@@H](CO)O2)c(=O)[nH]c1=O` [ZDV, Zidovudine, reference compound]: the EC50 is 4 nM in series [1] (MT-4 cells, Subtype B (X4), value estimated by extrapolation, read-out: EC50); 5 nM in [2]; 7 nM in series [3] (Human immunodeficiency virus 1, Human PBMC, Subtype B (X4), read-out: EC50); 8 nM in series [4]; 4 to 8 nM with HIV-1 subtype B and C.

As for `COc1ccc2c(c1)c(C1=C(c3c[nH]c4ccccc34)C(=O)NC1=O)cn2CCCN(C)C` [GÖ6983], the “blocking of GFP expression induced by ING-B” value in the series with PKC [7] (J-Lat clones 9.2 and 10.6, pre-treatment, then ING-B 24 h) was “strongly blocked GFP expression”. The “effect on ING-B-driven receptor downregulation” value in the series on PKC [8] was “not able to downregulate the expression of CD4 and CXCR4”. In the series with PKC [9], the “overexpression of CD4 and CCR5 compared to untreated control” value is recorded as “up to 2.5 fold”.

For the compound `Cn1c2ccccc2c2c3c(c4c5ccccc5n(CCC#N)c4c21)C(=O)NC3` [GÖ6976], the “effect on ISD induction of GFP expression” value in the series with PKC [7] (0.1 µM inhibitor) is recorded as “little effect”. Further, the “effect on ING-B-driven receptor downregulation” value in the series on PKC [8] was “little effect on blocking receptor downregulation”.

With `CCC/C=C/C=C/C(=O)O[C@H]1/C(=C/C(=O)OC)C[C@H]2C[C@H]([C@@H](C)O)OC(=O)C[C@H](O)C[C@@H]3C[C@H](OC(C)=O)C(C)(C)[C@](O)(C[C@@H]4C/C(=C/C(=O)OC)C[C@H](/C=C/C(C)(C)[C@]1(O)O2)O4)O3` [bryostatin-1], in series [10], the “downregulation of surface CD4 and CXCR4 (in words)” value is “not by prostratin and bryostatin-1”. Also, the “downregulation of surface CCR5” value in [11] is “less efficient in downregulating surface expression of CCR5”.

In general, EC50 refers to the concentration that produces a half-maximal response. By CC50 is commonly meant the concentration giving 50% cytotoxicity.
